Results published in US9610331B2, “Methods for hematopoietic precursor mobilization” (Yeda Research and Development Co. Ltd., priority 2009, dated 2017).
Ends that are not written are not given here. * marks the point of attachment. Palmitoyl = CCCCCCCCCCCCCCCC(=O)*

B1: G-CSF: recombinant human G-CSF (Neupogen, Amgen) (protein, UniProt P09919 31-207, looked up)
Granulocyte …: TPLGPASSLPQSFLLKCLEQVRKIQGDGAALQEKLVSECATYKLCHPEELVLLGHSLGIPWAPLSSCPSQALQLAGCLSQLHSGLFLYQGLLQALEGISPELGPTLDTLQLDVADFATTIWQQMEELGMAPALQPTQGAMPAFASAFQRRAGGVLVASHLQSFLEVSYRVLRHLAQP
modifications: filgrastim

Key:
[1] = system: CD34+ cells; conditions: cited from earlier work
[2] = system: C57BL mice; assay: G-CSF induced splenomegaly (spleen weight) in C57BL mice; assay type: in vivo
Protocol: All animals were maintained under conditions approved by the Institutional Animal Care and Use Committee at the Weizmann Institute. The study protocol was approved by the ethics committees at Weizmann Institute. In these experiments, 8 to 10 week old immune competent C57BL mice were used. All mice were kept in small cages (up to five animals per cage) and fed sterile food.
Mice were treated by daily subcutaneous injections of recombinant human G-CSF (Neupogen, Amgen) at a dose of 250 μg per kg per day for 7 days. To determine the spleen weight, mice were euthanized and spleens were harvested 7 days after the initiation of G-CSF treatment.
Dabigatran etexilate (Boehringer Ingelheim Pharma KG, Biberach, Germany) was administered orally at a dosage of 30 mg/kg. A final volume of 0.3 ml dissolved in DDW was administered daily.
The palmitoylated peptides: pal-RCLSSSAVANRS (PAR1 antagonist, SEQ ID NO: 1) and pal-SGRRYGHALR (PAR4 antagonist, SEQ ID NO: 2) were prepared by solid-phase peptide synthesis using in situ neutralization/HBTU by Hadar Biotec, Israel. The mice were treated by vehicle control, or with PAR1 antagonist or PAR4 antagonist at 0.5 mg/kg, intraperitoneally on daily basis.

[3] = system: spleen cells; assay: Cellular composition of spleen by flow cytometry; assay type: in vivo, mouse; conditions: for B cells (B220) / Granulocytes (Gr-1) / Macrophages (CD11b) / T cells (CD3): spleen, C57BL mice, 7 days treatment, mean ± SD
Protocol: (§1) Membrane expression of different molecules on mouse bone marrow (BM) and spleen cells was detected by flow cytometry, using one- or two-step staining procedures.
(§2) Cellular composition of the hematopoietic compartment was stained by CD3-FITC, B220-PE, CD-11b allophycocyanin and Gr-1 FITC ((Pharmigen, BD).
(§3) After staining, cells were washed and analyzed LSRII (Becton Dickinson) using FlowJo software.
(§4) Comparisons between the different groups were evaluated using the Student's test. Data were expressed as mean±SD, and were considered statistically significant at p values of 0.05 or less.

[4] = system: bone marrow (BM) cells; assay: Cellular composition of bone marrow by flow cytometry; assay type: in vivo, mouse; conditions: for B cells (B220) / Granulocytes (Gr-1) / Macrophages (CD11b) / T cells (CD3): bone marrow, C57BL mice, 7 days treatment, mean ± SD
Protocol: as §1, §2, §3, §4

[5] = system: hematopoietic progenitors; assay: Colony-forming assay of spleen cells (CFU/spleen); assay type: in vivo, mice; conditions: for precursor mobilization (CFU/spleen), enhancement as compared to non-treated mice: antagonist added to G-CSF treatment; for circulating CFU/spleen compared with C57BL/6 mice: at 7 days after G-CSF treatment, P<0.05 vs C57BL/6 (n=5), FIG. 3 legend
Protocol: All animals were maintained under conditions approved by the Institutional Animal Care and Use Committee at the Weizmann Institute. The study protocol was approved by the ethics committees at Weizmann Institute. In these experiments, 8 to 10 week old immune competent C57BL mice and C57BL hemophilic (C57BL Hem F8) mice were used. All mice were kept in small cages (up to five animals per cage) and fed sterile food. Cells were plated in 0.9% methylcellulose (Sigma Chemical Co.), 30% FCS, DMEM medium (Sigma Chemical Co.), 50 ng/ml stem cell factor (SCF), 5 ng/ml IL-3 (R&D Systems Inc.), 5 ng/ml GM-CSF (R&D Systems Inc.), and 2 U/ml erythropoietin (EPO; Orto Bio Tech, Don Mills, Ontario, Canada). Total spleen cells 5×10^5 were seeded in semisolid cultures. Colonies were scored 7 days later under an inverted microscope (CK2; Olympus), applying morphological criteria. To study the role of thrombin in the mobilization of hematopoietic progenitors, inventors enumerated these cells by their ability to form colonies in semi-solid media. Thus, after 7 days of treatment with G-CSF with or without PAR antagonists, the number of hematopoietic progenitors in the spleen was estimated by plating the low density mononuclear cells in methylcellulose containing appropriate nutrients and growth factors (see materials and experimental procedures, above). The plates were incubated for 7 days and the colonies were scored using a low magnification microscope. The number of progenitors mobilized into the spleen was presented as CFU/spleen (FIG. 3). […] However, the addition of PAR1 or PAR4 antagonists to G-CSF treatment led to further enhancement of precursor mobilization by 15.3 and 6.4 fold, respectively (as compared to non-treated mice). Likewise, in Factor VIII knock out (KO) mice, which have low thrombin levels due to the absence of Factor VIII, an enhancement of spleen colonies by a factor of 15.9 was recorded upon treatment with G-CSF.

[6] = system: Lin−Kit+Sca+ stem cell; assay: Lin-Kit+Sca+ stem cell numbers in blood, spleen and BM by FACS; assay type: in vivo, mouse; conditions: FIG. 4
Source text: Membrane expression of different molecules on mouse bone marrow (BM), spleen and peripheral blood (PB) mononuclear cells (MNCs) was detected by flow cytometry, using one- or two-step staining procedures.
Cells were stained for lineage negative Lin− (CD3, B220, CD11b, Gr-1 and Ten-119 were biotinilated and detected by strepavidine Pe-Cy7), stem cell factor receptor positive (c-kit allophycocyanin+), stem cell antigen-1 positive (Sca-1 PE+) using Pharmigen, BD.
After staining, cells were washed and analyzed on LSRII (Becton Dickinson) using FlowJo software.
as §4

[7] = system: HSPC; conditions: after a single injection; cited from earlier work
[8] = system: C57BL/6 mice; conditions: 7 day daily G-CSF treatment of C57BL/6 mice; cited from earlier work
[9] = with G-CSF for 7 days, antagonist 0.5 mg/kg intraperitoneally daily, FIG. 2

| Molecule | G-CSF induced splenomegaly [2, 9] | B cells (B220) [3] | Granulocytes (Gr-1) [3] | Macrophages (CD11b) [3] | T cells (CD3) [3] | B cells (B220) [4] | Granulocytes (Gr-1) [4] | Macrophages (CD11b) [4] | T cells (CD3) [4] | precursor mobilization (CFU/spleen), enhancement as compared to non-treated mice ([5]; 7 days, C57BL mice, FIG. 3) | circulating CFU/spleen compared with C57BL/6 mice [5] | other results |
| --- | --- | --- | --- | --- | --- | --- | --- | --- | --- | --- | --- | --- |
| c1cc(CN2CCCNCCNCCCNCC2)ccc1CN1CCCNCCNCCCNCC1 [AMD3100] | – | – | – | – | – | – | – | – | – | – | – | mobilization capacity of G-CSF ([1]; in combination with G-CSF in mice): significantly improves; mobilization of CD34+ cells ([1]; on its own): adequately |
| CCCCCCOC(=O)NC(=N)c1ccc(NCc2nc3cc(C(=O)N(CCC(=O)OCC)c4ccccn4)ccc3n2C)cc1 [Dabigatran, Dabigatran etexilate, reference compound] | – | – | – | – | – | – | – | – | – | – | – | G-CSF induced splenomegaly ([2]; in conjunction with G-CSF 250 μg per kg per day s.c. for 7 days, Dabigatran etexilate 30 mg/kg orally daily, FIG. 1): marked enhancement |
| pal-RCLSSSAVANRS (Palmitoyl-RCLSSSAVANRS) [PAR1 antagonist] | significantly enhanced | 50.57 ± 4.36% | 3.99 ± 2.42% | 2.96 ± 1.18% | 39.59 ± 3.41% | 13.42 ± 5% | 38.26 ± 5.31% | 34.40 ± 5.16% | 2.28 ± 0.46% | 15.3 fold | more | Lin−Kit+Sca+ stem cell number in the blood and the spleen ([6]; co-treatment with G-CSF): highest increase; Lin−Kit+Sca+ stem cell numbers in the bone marrow ([6]; co-treatment with G-CSF): clearly enhanced; Lin−Kit+Sca+ stem cells numbers in the blood and especially in the BM ([6]; without G-CSF treatment): marked enhancement |
| pal-SGRRYGHALR (Palmitoyl-SGRRYGHALR) [PAR4 antagonist] | significantly enhanced | 46.34 ± 4.23 % | 4.41 ± 2.08% | 3.53 ± 1.49% | 39.63 ± 3.52% | 16.16 ± 7.26% | 50.58 ± 9.74% | 41.06 ± 12.93% | 2.93 ± 1.54% | 6.4 fold | more | B cell numbers in the spleen ([3]; summary of Table 1): reduced; B cell numbers in the BM ([4]; Table 2): reduced |
| zymosan | – | – | – | – | – | – | – | – | – | – | – | time to mobilize HSPC [7]: ≤ 1 h |
| B1 | – | 47.37 ± 1.33% | 10.21 ± 2.69% | 8.16 ± 2.07% | 34.16 ± 3.17% | 3.18 ± 1.01% | 77.06 ± 7.38% | 74.37 ± 7.79% | 0.98 ± 0.85% | – | – | hematopoietic stem cell (HSC) mobilization and splenomegaly [8]: induced; number of granulocytes and macrophages in the spleen ([3]; after G-CSF treatment, summary of Table 1): marked elevation; number of granulocytes and macrophages in the BM ([4]; after G-CSF treatment, Table 2): marked elevation; enhancement of spleen colonies ([5]; Factor VIII knock out (KO) mice, upon treatment with G-CSF): 15.9 fold; mobilization of progenitors (CFU/spleen), enhancement as compared to non-treated mice ([5]; G-CSF treatment alone, 7 days, C57BL mice, FIG. 3): 2.8 fold |
